These results are taken from patent US20130217579A1, “Pesticide Preparations Containing N-Substituted 2-Pyrrolidone-4-Carboxylic Acid Esters” (CLARIANT FINANCE (BVI) LIMITED, priority 2010, published 2013).

Molecules are shown by their SMILES.

This series can be described thus: Solubilities of pesticides in compounds of formula (1). The class given is physicochemical. As for the experimental part: The solubilities of various pesticides were determined in various compounds of formula (1) at 25° C. All data are in % by weight (Table 1).

As for `CCCCOC(=O)C1CC(=O)N(C)C1` (centres unmarked) [Example 3, N-butyl N-methyl-2-pyrrolidone-4-carboxylate], the “Solubility of Pendimethalin in compound of formula (1)” value is given as 38.9 % by weight, the “Solubility of Tebuconazole in compound of formula (1)” value came to 37.0 % by weight, the “Solubility of Triadimefon in compound of formula (1)” value was found to be 43.0 % by weight and the “Solubility of Trifloxystrobin in compound of formula (1)” value was determined as 30.1 % by weight. In addition, the “Solubility of Trifluralin in compound of formula (1)” value was found to be 57.4 % by weight.
